Legend:
Type in all cases: in vivo
[1] = tested on: ragweed (common ragweed, Ambrosia elatior); test: Test A postemergence, visual injury rating; conditions: for Ragweed plant response rating (0 to 100 scale): 500 g ai/ha
Outline: (§1)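 Visual 0–100 rating (100 = complete control) taken about 10 d post-treatment relative to untreated checks. Preemergence: directed soil spray on sown loam/sand pots. Postemergence: seedlings 2–10 cm, 1–2 leaf. Non-phytotoxic solvent formulation with surfactant.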

[2] = tested on: Italian ryegrass (Lolium multiflorum); test: Test A postemergence, visual injury rating; conditions: for Ryegrass, Italian plant response rating (0 to 100 scale): 500 g ai/ha
Outline: as §1

[3] = tested on: pigweed (Amaranthus retroflexus); test: Test A postemergence, visual injury rating; conditions: for Pigweed plant response rating (0 to 100 scale): 500 g ai/ha
Outline: as §1

[4] = tested on: giant foxtail (Setaria faberii); test: Test A postemergence, visual injury rating; conditions: for Foxtail, Giant plant response rating (0 to 100 scale): 500 g ai/ha
Outline: as §1

[5] = tested on: kochia (Kochia scoparia); test: Test A postemergence, visual injury rating; conditions: for Kochia plant response rating (0 to 100 scale): 500 g ai/ha
Outline: as §1

[6] = tested on: corn (Zea mays); test: Test A postemergence, visual injury rating; conditions: for Corn plant response rating (0 to 100 scale): 500 g ai/ha
Outline: as §1

[7] = tested on: wheat (Triticum aestivum); test: Test A postemergence, visual injury rating; conditions: for Wheat plant response rating (0 to 100 scale): 500 g ai/ha
Outline: as §1

[8] = tested on: rice (Oryza sativa); test: Test B flooded paddy test, plant response rating; conditions: 250 g ai/ha; Flood; scale of 0 to 100 where 0 is no effect and 100 is complete control; 13 to 15 days
Outline: (§2)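 Greenhouse pots flooded to 3 cm above soil at time of treatment received compound via the water, which stayed at that level.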

[9] = tested on: barnyardgrass (Echinochloa crus-galli); test: Test B flooded paddy test, plant response rating; conditions: 250 g ai/ha; Flood; scale of 0 to 100 where 0 is no effect and 100 is complete control; 13 to 15 days
Outline: as §2

[10] = tested on: sedge, umbrella (small-flower umbrella sedge, Cyperus difformis); test: Test B flooded paddy test, plant response rating; conditions: 250 g ai/ha; Flood; scale of 0 to 100 where 0 is no effect and 100 is complete control; 13 to 15 days
Outline: as §2

[11] = tested on: ducksalad (Heteranthera limosa); test: Test B flooded paddy test, plant response rating; conditions: 250 g ai/ha; Flood; scale of 0 to 100 where 0 is no effect and 100 is complete control; 13 to 15 days
Outline: as §2

[12] = tested on: velvetleaf (Abutilon theophrasti); test: Test C postemergence, plant response rating; conditions: for Velvetleaf plant response rating: 125 g ai/ha, scale 0 to 100 (0 no effect, 100 complete control)
Outline: (§3)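 After sowing in loam–sand blend or silt loam, pots were sprayed preemergence; separately grown 1- to 4-leaf plants were sprayed postemergence. Following 13 to 15 d under greenhouse conditions, injury was rated visually on a 0 to 100 scale.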

[13] = tested on: ragweed (common ragweed, Ambrosia elatior); test: Test C postemergence, plant response rating; conditions: for Ragweed plant response rating: scale 0 to 100 (0 no effect, 100 complete control)
Outline: as §3

[14] = tested on: morningglory (Ipomoea coccinea); test: Test C postemergence, plant response rating; conditions: for Morningglory plant response rating: scale 0 to 100 (0 no effect, 100 complete control)
Outline: as §3

[15] = tested on: waterhemp (common waterhemp, Amaranthus rudis); test: Test C postemergence, plant response rating; conditions: for Waterhemp plant response rating: 125 g ai/ha, scale 0 to 100 (0 no effect, 100 complete control)
Outline: as §3

[16] = tested on: kochia (Kochia scoparia); test: Test C postemergence, plant response rating; conditions: for Kochia plant response rating: scale 0 to 100 (0 no effect, 100 complete control)
Outline: as §3

[17] = tested on: oilseed rape (Brassica napus); test: Test C postemergence, plant response rating; conditions: for Oilseed Rape plant response rating: scale 0 to 100 (0 no effect, 100 complete control)
Outline: as §3

[18] = tested on: barnyardgrass (Echinochloa crus-galli); test: Test C postemergence, plant response rating; conditions: for Plant response rating, Barnyardgrass: scale 0 to 100; for Barnyardgrass plant response rating: scale 0 to 100 (0 no effect, 100 complete control)
Outline: as §3

[19] = 31 g ai/ha, 0 to 100 scale (0 no effect, 100 complete control)
[20] = 125 g ai/ha, 0 to 100 scale, 0 is no effect, 100 is complete control, approximately 10 days
[21] = 0 is no effect, 100 is complete control

O=C(CCCC(F)(F)F)c1c(Cl)cccc1Oc1ncc(Cl)cn1 [Compound 143]
Ragweed plant response rating [1, 19]: 20 | Ragweed plant response rating [1, 20]: 50 | Ryegrass, Italian plant response rating [2, 19]: 20 | Ryegrass, Italian plant response rating [2, 20]: 80 | Pigweed plant response rating [3, 19]: 100 | Pigweed plant response rating [3, 20]: 100 | Foxtail, Giant plant response rating [4, 19]: 30 | Foxtail, Giant plant response rating [4, 20]: 70 | Kochia plant response rating [5, 19]: 90 | Kochia plant response rating [5, 20]: 100 | Corn plant response rating [6, 19]: 10 | Corn plant response rating [6, 20]: 30 | Wheat plant response rating [7, 19]: 10 | Wheat plant response rating [7, 20]: 20 | Plant response rating, Rice [8]: 40 | Plant response rating, Barnyardgrass [9]: 50 | Plant response rating, Sedge, Umbrella [10]: 90 | Plant response rating, Ducksalad [11]: 90 | Plant response rating, Velvetleaf ([12]; 16 g ai/ha, scale of 0 to 100): 35 | Plant response rating, Velvetleaf ([12]; 31 g ai/ha, scale 0 to 100): 55 | Velvetleaf plant response rating [12]: 70 | Plant response rating, Ragweed ([13]; 16 g ai/ha, scale of 0 to 100): 20 | Plant response rating, Ragweed ([13]; 31 g ai/ha, scale 0 to 100): 50 | Ragweed plant response rating ([13]; 62 g ai/ha): 55 | Ragweed plant response rating ([13]; 125 g ai/ha): 55 | Plant response rating, Morningglory ([14]; 16 g ai/ha, scale of 0 to 100): 15 | Plant response rating, Morningglory ([14]; 31 g ai/ha, scale 0 to 100): 70 | Morningglory plant response rating ([14]; 62 g ai/ha): 50 | Morningglory plant response rating ([14]; 125 g ai/ha): 65 | Plant response rating, Waterhemp ([15]; 16 g ai/ha, scale of 0 to 100): 75 | Plant response rating, Waterhemp ([15]; 31 g ai/ha, scale 0 to 100): 80 | Waterhemp plant response rating [15]: 90 | Plant response rating, Kochia ([16]; 16 g ai/ha, scale of 0 to 100): 98 | Plant response rating, Kochia ([16]; 31 g ai/ha, scale 0 to 100): 100 | Kochia plant response rating ([16]; 62 g ai/ha): 100 | Kochia plant response rating ([16]; 125 g ai/ha): 100 | Plant response rating, Oilseed Rape ([17]; 16 g ai/ha, scale of 0 to 100): 85 | Plant response rating, Oilseed Rape ([17]; 31 g ai/ha, scale 0 to 100): 80 | Oilseed Rape plant response rating ([17]; 62 g ai/ha): 95 | Oilseed Rape plant response rating ([17]; 125 g ai/ha): 100 | Plant response rating, Barnyardgrass ([18]; 16 g ai/ha): 5 | Plant response rating, Barnyardgrass ([18]; 31 g ai/ha): 10 | Barnyardgrass plant response rating ([18]; 62 g ai/ha): 10 | Barnyardgrass plant response rating ([18]; 125 g ai/ha): 20

CCCC(=O)c1c(Oc2ncc(Cl)cn2)cccc1C(F)(F)F [Compound 136]
Ragweed plant response rating [1, 20]: 20 | Ragweed plant response rating (0 to 100 scale) [1, 21]: 60 | Ryegrass, Italian plant response rating [2, 20]: 10 | Ryegrass, Italian plant response rating (0 to 100 scale) [2, 21]: 70 | Pigweed plant response rating [3, 20]: 100 | Pigweed plant response rating (0 to 100 scale) [3, 21]: 100 | Foxtail, Giant plant response rating [4, 20]: 30 | Foxtail, Giant plant response rating (0 to 100 scale) [4, 21]: 90 | Kochia plant response rating [5, 20]: 80 | Kochia plant response rating (0 to 100 scale) [5, 21]: 100 | Corn plant response rating [6, 20]: 20 | Corn plant response rating (0 to 100 scale) [6, 21]: 50 | Wheat plant response rating [7, 20]: 10 | Wheat plant response rating (0 to 100 scale) [7, 21]: 20 | Plant response rating, Rice [8]: 35 | Plant response rating, Barnyardgrass [9]: 45 | Plant response rating, Sedge, Umbrella [10]: 80 | Plant response rating, Ducksalad [11]: 60 | Plant response rating, Velvetleaf ([12]; 16 g ai/ha, scale of 0 to 100): 20 | Plant response rating, Velvetleaf ([12]; 31 g ai/ha, scale 0 to 100): 50 | Velvetleaf plant response rating [12]: 70 | Plant response rating, Ragweed ([13]; 16 g ai/ha, scale of 0 to 100): 20 | Plant response rating, Ragweed ([13]; 31 g ai/ha, scale 0 to 100): 20 | Ragweed plant response rating ([13]; 62 g ai/ha): 30 | Ragweed plant response rating ([13]; 125 g ai/ha): 35 | Plant response rating, Morningglory ([14]; 16 g ai/ha, scale of 0 to 100): 10 | Plant response rating, Morningglory ([14]; 31 g ai/ha, scale 0 to 100): 15 | Morningglory plant response rating ([14]; 62 g ai/ha): 20 | Morningglory plant response rating ([14]; 125 g ai/ha): 35 | Plant response rating, Waterhemp ([15]; 16 g ai/ha, scale of 0 to 100): 70 | Plant response rating, Waterhemp ([15]; 31 g ai/ha, scale 0 to 100): 70 | Waterhemp plant response rating [15]: 75 | Plant response rating, Kochia ([16]; 16 g ai/ha, scale of 0 to 100): 80 | Plant response rating, Kochia ([16]; 31 g ai/ha, scale 0 to 100): 80 | Kochia plant response rating ([16]; 62 g ai/ha): 85 | Kochia plant response rating ([16]; 125 g ai/ha): 90 | Plant response rating, Oilseed Rape ([17]; 16 g ai/ha, scale of 0 to 100): 65 | Plant response rating, Oilseed Rape ([17]; 31 g ai/ha, scale 0 to 100): 80 | Oilseed Rape plant response rating ([17]; 62 g ai/ha): 80 | Oilseed Rape plant response rating ([17]; 125 g ai/ha): 80 | Plant response rating, Barnyardgrass ([18]; 16 g ai/ha): 5 | Plant response rating, Barnyardgrass ([18]; 31 g ai/ha): 5 | Barnyardgrass plant response rating ([18]; 62 g ai/ha): 10 | Barnyardgrass plant response rating ([18]; 125 g ai/ha): 10

CCCCC(=O)c1c(Oc2ncc(Cl)cn2)cccc1C(F)(F)F [Compound 130]
Ragweed plant response rating [1, 20]: 30 | Ragweed plant response rating (0 to 100 scale) [1, 21]: 60 | Ryegrass, Italian plant response rating [2, 20]: 20 | Ryegrass, Italian plant response rating (0 to 100 scale) [2, 21]: 90 | Pigweed plant response rating [3, 20]: 100 | Pigweed plant response rating (0 to 100 scale) [3, 21]: 100 | Foxtail, Giant plant response rating [4, 20]: 40 | Foxtail, Giant plant response rating (0 to 100 scale) [4, 21]: 90 | Kochia plant response rating [5, 20]: 100 | Kochia plant response rating (0 to 100 scale) [5, 21]: 100 | Corn plant response rating [6, 20]: 20 | Corn plant response rating (0 to 100 scale) [6, 21]: 50 | Wheat plant response rating [7, 20]: 30 | Wheat plant response rating (0 to 100 scale) [7, 21]: 30 | Plant response rating, Rice [8]: 35 | Plant response rating, Barnyardgrass [9]: 55 | Plant response rating, Sedge, Umbrella [10]: 98 | Plant response rating, Ducksalad [11]: 40 | Plant response rating, Velvetleaf ([12]; 16 g ai/ha, scale of 0 to 100): 25 | Plant response rating, Velvetleaf ([12]; 31 g ai/ha, scale 0 to 100): 45 | Velvetleaf plant response rating [12]: 75 | Plant response rating, Ragweed ([13]; 16 g ai/ha, scale of 0 to 100): 25 | Plant response rating, Ragweed ([13]; 31 g ai/ha, scale 0 to 100): 45 | Ragweed plant response rating ([13]; 62 g ai/ha): 55 | Ragweed plant response rating ([13]; 125 g ai/ha): 50 | Plant response rating, Morningglory ([14]; 16 g ai/ha, scale of 0 to 100): 10 | Plant response rating, Morningglory ([14]; 31 g ai/ha, scale 0 to 100): 25 | Morningglory plant response rating ([14]; 62 g ai/ha): 65 | Morningglory plant response rating ([14]; 125 g ai/ha): 55 | Plant response rating, Waterhemp ([15]; 16 g ai/ha, scale of 0 to 100): 65 | Plant response rating, Waterhemp ([15]; 31 g ai/ha, scale 0 to 100): 75 | Waterhemp plant response rating [15]: 85 | Plant response rating, Kochia ([16]; 16 g ai/ha, scale of 0 to 100): 80 | Plant response rating, Kochia ([16]; 31 g ai/ha, scale 0 to 100): 85 | Kochia plant response rating ([16]; 62 g ai/ha): 95 | Kochia plant response rating ([16]; 125 g ai/ha): 98 | Plant response rating, Oilseed Rape ([17]; 16 g ai/ha, scale of 0 to 100): 70 | Plant response rating, Oilseed Rape ([17]; 31 g ai/ha, scale 0 to 100): 85 | Oilseed Rape plant response rating ([17]; 62 g ai/ha): 95 | Oilseed Rape plant response rating ([17]; 125 g ai/ha): 98 | Plant response rating, Barnyardgrass ([18]; 16 g ai/ha): 5 | Plant response rating, Barnyardgrass ([18]; 31 g ai/ha): 5 | Barnyardgrass plant response rating ([18]; 62 g ai/ha): 10 | Barnyardgrass plant response rating ([18]; 125 g ai/ha): 20

Source: patent publication US11053204B2, “Pyrimidinyloxy benzene derivatives as herbicides” (FMC Corporation, priority 2015, dated 2021)
